Data reported in patent US20070072920A1, “Phenylethylamine analogs and their use for treating glaucoma” (Alcon, Inc., priority 2005, published 2007).
Counter-ions that a name gives are not always drawn. Like-named read-outs stand apart in the source and are kept apart here.

Columns and labels:
[1] = target: T1, 5-HT2 receptor in A7r5 rat vascular smooth muscle cells (Rattus norvegicus, UniProt P14842); experiment: 5-HT2 Functional Assay: Calcium Mobilization (FLIPR); format: cell-based; details: for Emax: read-out: Efficacy (Emax %)
T1 construct: endogenous in cells; host or cells: A7r5 rat vascular smooth muscle cells
T1 sequence (P14842 whole entry): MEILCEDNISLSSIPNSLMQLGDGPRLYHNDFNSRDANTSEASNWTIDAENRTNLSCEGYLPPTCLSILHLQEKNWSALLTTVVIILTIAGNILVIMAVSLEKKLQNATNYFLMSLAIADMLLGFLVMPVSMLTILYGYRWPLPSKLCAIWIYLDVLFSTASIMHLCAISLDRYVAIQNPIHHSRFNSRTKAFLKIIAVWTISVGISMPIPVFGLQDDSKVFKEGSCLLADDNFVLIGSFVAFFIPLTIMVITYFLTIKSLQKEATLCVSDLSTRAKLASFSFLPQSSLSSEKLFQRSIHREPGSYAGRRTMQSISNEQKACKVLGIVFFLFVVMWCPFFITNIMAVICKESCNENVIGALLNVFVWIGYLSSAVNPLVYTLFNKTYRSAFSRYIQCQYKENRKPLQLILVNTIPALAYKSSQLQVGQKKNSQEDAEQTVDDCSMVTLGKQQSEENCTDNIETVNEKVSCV
Description: 5-HT2 Functional Assay: Calcium Mobilization
The receptor-mediated mobilization of intracellular calcium ([Ca^2+]i) was studied using the Fluorescence Imaging Plate Reader (FLIPR) instrument. Rat vascular smooth muscle cells, A7r5, were grown in a normal media of DMEM/10% FBS and 10 μg/ml gentamycin. Confluent cell monolayers were trypsinized, pelleted, and re-suspended in normal media. Cells were seeded in a 50 μL volume at a density of 20,000 cells per well in a black wall, 96-well tissue culture plate and grown for 2 days. On the day of the experiment, one vial of FLIPR Calcium Assay Kit dye was re-suspended in 50 ml of a FLIPR buffer consisting of Hank's Balanced Salt Solution (HBSS), 20 mM HEPES, and 2.5 mM probenecid, pH 7.4. Cells were loaded with the calcium-sensitive dye by addition of an equal volume (50 μl) to each well of the 96-well plate and incubated with dye for 1 h at 23° C. Typically, test compounds were stored at […] in 50% DMSO/50% Ethanol solvent. Compounds were diluted 1:50 in 20% DMSO/20% Ethanol. For dose-response experiments, compounds were diluted 1:50 in FLIPR buffer and serially diluted 1:10 to give a 5- or 8-point dose-response curve.
At the beginning of an experimental run, a signal test was performed to check the basal fluorescence signal from the dye-loaded cells and the uniformity of the signal across the plate. The basal fluorescence was adjusted between 8000-12000 counts by modifying the exposure time, the camera F-stop, or the laser power. The instrument settings for a typical assay were as follows: laser power 0.3-0.6 W, camera F-stop F/2, and exposure time 0.4 sec. An aliquot (25 μl) of the test compound was added to the existing 100 μl dye-loaded cells at a dispensing speed of 50 μl/sec. Fluorescence data were collected in real-time at 1.0 sec intervals for the first 60 sec and at 6.0 sec intervals for an additional 120 sec. Responses were measured as peak fluorescence intensity minus basal and where appropriate were expressed as a percentage of a maximum 5-HT-induced response.

[2] = system: lasered (hypertensive) eyes of conscious cynomolgus monkeys; experiment: Acute IOP Response in Lasered (Hypertensive) Eyes of Conscious Cynomolgus Monkeys; format: in vivo, cynomolgus monkey; details: 300 μg topical; for % IOP change 1 hr: 1 hr after dose; for % IOP change 3 hr: 3 hr after dose; for % IOP change 6 hr: 6 hr after dose
Description: Acute IOP Response in Lasered (Hypertensive) Eyes of Conscious Cynomolgus Monkeys
Intraocular pressure (IOP) can be determined with an Alcon Pneumatonometer after light corneal anesthesia with 0.1% proparacaine. Eyes are washed with saline after each measurement. After a baseline IOP measurement, test compound is instilled in one 30 μL aliquot to the right eyes only of nine cynomolgus monkeys. Vehicle is instilled in the right eyes of six additional animals. Subsequent IOP measurements are taken at 1, 3, and 6 hours.

5-HT2 receptors = 5-HT2 receptors (Rattus norvegicus, UniProt P14842); experiment: 5-HT2 Receptor Binding Assay ([125I]DOI competition); set-up: species or system rat or human; details: inhibition of [125I]DOI binding, cerebral cortex homogenates
Chain of 5-HT2 receptors (P14842 whole entry): as above
Description: 5-HT2 Receptor Binding Assay
The assay mixture is incubated for 1 hour at 23° C. in polypropylene tubes and the assays terminated by rapid vacuum filtration over Whatman GF/B glass fiber filters previously soaked in 0.3% polyethyleneimine using ice-cold buffer. Test compounds (at different concentrations) are substituted for methiothepin. Filter-bound radioactivity is determined by scintillation spectrometry on a beta counter.

[3] = percentage of maximum 5-HT-induced response, A7r5 cells

| Compound | EC50 [1] [nM] | Emax [1, 3] [%] | further results |
| --- | --- | --- | --- |
| CCOC(=O)Cc1cc(OC)c(C[C@@H](C)N)cc1OC [Example 1, [(R)-4-(2-Amino-propyl)-2,5-dimethoxy-phenyl]-acetic acid ethyl ester hydrochloride] | 1100 | 24 | – |
| COc1cc(C[C@@H](C)N)c(OC)cc1Cc1nc(C)no1 [Example 2, (R)-2-[2,5-Dimethoxy-4-(3-methyl-[1,2,4]oxadiazol-5-ylmethyl)-phenyl]-1-methyl-ethylamine hydrochloride] | 1060 | 23 | – |
| COCCc1cc(OC)c(C[C@@H](C)N)cc1OC.Cl [Example 3, (R)-2-[2,5-Dimethoxy-4-(2-methoxy-ethyl)-phenyl]-1-methyl-ethylamine hydrochloride] | 78 | 53 | % IOP change 1 hr [2]: −5.2%; % IOP change 3 hr [2]: −16.3%; % IOP change 6 hr [2]: −21.5% |
| COc1cc(CC(C)N)c(OC)cc1CCSC.Cl (stereo not shown) [Example 4, 2-[2,5-Dimethoxy-4-(2-methylsulfanyl-ethyl)-phenyl]-1-methyl-ethylamine hydrochloride] | 94 | 51 | % IOP change 1 hr [2]: −3.5%; % IOP change 3 hr [2]: −14.8%; % IOP change 6 hr [2]: −16.1% |
| COc1cc(C[C@@H](C)N)c(OC)cc1CCCSC [Example 5, (R)-2-[2,5-Dimethoxy-4-(3-methylsulfanyl-propyl)-phenyl]-1-methyl-ethylamine hydrochloride] | 37 | 21 | – |
| COCCCc1cc(OC)c(C[C@@H](C)N)cc1OC [Example 6, (R)-2-[2,5-Dimethoxy-4-(3-methoxy-propyl)-phenyl]-1-methyl-ethylamine hydrochloride] | 22 | 45 | – |
| COCSCCc1cc(OC)c(C[C@@H](C)N)cc1OC [Example 7, (R)-2-[2,5-Dimethoxy-4-(2-methoxymethylsulfanyl-ethyl)-phenyl]-1-methyl-ethylamine hydrochloride] | 91 | 32 | – |
| COc1cc(C)c(OS(C)(=O)=O)cc1CC(C)N (stereo not shown) [Example 8, Methanesulfonic acid 5-(2-amino-propyl)-4-methoxy-2-methyl-phenyl ester hydrochloride] | 890 | 30 | – |
| COc1cc(C)c(OC(C)=O)cc1CC(C)N (stereo not shown) [Example 9, Acetic acid 5-(2-Amino-propyl)-4-methoxy-2-methyl-phenyl ester hydrochloride] | 4900 | 37 | – |
| COc1cc(C[C@@H](C)N)c(OC)cc1CC1=NCCS1 [Example 10, (R)-2-[4-(4,5-Dihydro-thiazol-2-ylmethyl)-2,5-dimethoxy-phenyl]-1-methyl-ethylamine hydrochloride] | 600 | 52 | – |
| COc1cc(C[C@@H](C)N)c(OC)cc1CC1CCCO1 (stereo partly drawn) [Example 12, (R)-2-[2,5-Dimethoxy-4-(tetrahydro-furan-2-ylmethyl)-phenyl]-1-methyl-ethylamine hydrochloride] | 82 | 73 | – |
| COc1cc(C[C@@H](C)N)c(OC)cc1CC1CCCS1 (stereo partly drawn) [Example 13, (R)-2-[2,5-Dimethoxy-4-(tetrahydro-thiophen-2-ylmethyl)-phenyl]-1-methyl-ethylamine hydrochloride] | 560 | 81 | – |
| COc1cc(CC(C)N)c(OC)cc1CSC (stereo not shown) [Example 14, 2-(2,5-Dimethoxy-4-methylsulfanylmethyl-phenyl)-1-methyl-ethylamine; hydrochloride] | 68 | 52 | – |
| COc1cc(C[S+](C)[O-])c(OC)cc1CC(C)N (stereo not shown) [Example 15, 2-(4-Methanesulfinylmethyl-2,5-dimethoxy-phenyl)-1-methyl-ethylamine trifluoroacetate] | 7600 | 37 | – |
| COc1cc(CC(C)N)c(OC)cc1CC[S+](C)[O-] (stereo not shown) [Example 16, 2-[4-(2-Methanesulfinyl-ethyl)-2,5-dimethoxy-phenyl]-1-methyl-ethylamine hydrochloride] | 870 | 40 | – |
| COc1cc(C[C@@H](C)N)c(OC)cc1Cc1ccccc1 [Example 17, (R)-2-(4-Benzyl-2,5-dimethoxy-phenyl)-1-methyl-ethylamine hydrochloride] | 310 | 43 | – |
| COc1ccc(Cc2cc(OC)c(C[C@@H](C)N)cc2OC)cc1 [Example 18, (R)-2-[2,5-Dimethoxy-4-(4-methoxy-benzyl)-phenyl]-1-methyl-ethylamine hydrochloride] | 220 | 23 | – |
| COc1ccccc1Cc1cc(OC)c(C[C@@H](C)N)cc1OC [Example 19, (R)-2-[2,5-Dimethoxy-4-(2-methoxy-benzyl)-phenyl]-1-methyl-ethylamine hydrochloride] | 660 | 22 | – |
| COc1cccc(Cc2cc(OC)c(C[C@@H](C)N)cc2OC)c1 [Example 20, (R)-2-[2,5-Dimethoxy-4-(3-methoxy-benzyl)-phenyl]-1-methyl-ethylamine hydrochloride] | 257 | 53 | – |
| COc1cc(C[C@@H](C)N)c(OC)cc1Cc1ccc(Cl)cc1 [Example 21, (R)-2-[4-(4-Chloro-benzyl)-2,5-dimethoxy-phenyl]-1-methyl-ethylamine hydrochloride] | 963 | 39 | – |
| (R)-2-(4-Furan-2-ylmethyl-2,5-dimethoxy-phenyl)-1-methyl-ethylamine hydrochloride [Example 11] | – | – | EC50 ([1]; intracellular calcium mobilization, A7r5 cells, FLIPR, read-out: EC50): 120 nM; Efficacy (Emax %) [1, 3]: 55%; IC50 (5-HT2 receptors): 0.36 nM |
